Data reported in PMC8237267 (Journal of Medicinal Chemistry, 2021).
“And” between values parts separate entries of the source, which are not always exact repeats. Equal entries are not always repeated. Where two headings read alike, the source gives them in different places.

Key:
HDAC3 = molecular target: T1, HDAC3 (Homo sapiens, UniProt O15379); assay: HDAC EMSA activity assay (Nanosyn); assay type: biochemical; details: recombinant enzyme, read-out: In vitro IC50 HDAC3
T1 construct: The full-length human HDACs were recombinantly expressed and purified from SF9 insect cells; host or cells: SF9 insect cells

HDAC11 = molecular target: T2, HDAC11 (Homo sapiens, UniProt Q96DB2); assay: HDAC EMSA activity assay (Nanosyn); assay type: biochemical; details: recombinant enzyme, read-out: In vitro IC50 HDAC11
T2 construct: The full-length human HDACs were recombinantly expressed and purified from SF9 insect cells; host or cells: SF9 insect cells
T2 sequence (Q96DB2 1-347): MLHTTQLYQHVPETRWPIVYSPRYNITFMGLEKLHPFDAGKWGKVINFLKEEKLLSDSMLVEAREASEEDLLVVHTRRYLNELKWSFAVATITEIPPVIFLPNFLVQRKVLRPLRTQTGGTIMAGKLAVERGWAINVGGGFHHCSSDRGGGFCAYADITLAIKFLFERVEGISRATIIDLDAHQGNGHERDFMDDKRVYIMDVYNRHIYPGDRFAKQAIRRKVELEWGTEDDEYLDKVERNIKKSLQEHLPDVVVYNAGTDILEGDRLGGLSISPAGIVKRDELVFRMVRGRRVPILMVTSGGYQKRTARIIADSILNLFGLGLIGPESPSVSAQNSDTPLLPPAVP

MRC-9 = assay: Cytotoxicity assay (Cell Titer-Blue, 72 h); assay type: cell-based
HDAC8 = molecular target: T3, HDAC8 (Homo sapiens, UniProt Q9BY41); assay: HDAC EMSA activity assay (Nanosyn); assay type: biochemical; details: for IC50: recombinant enzyme, EMSA (Nanosyn), read-out: In vitro IC50 HDAC8
T3 construct: The full-length human HDACs were recombinantly expressed and purified from SF9 insect cells; host or cells: SF9 insect cells
T3 sequence (Q9BY41 1-377): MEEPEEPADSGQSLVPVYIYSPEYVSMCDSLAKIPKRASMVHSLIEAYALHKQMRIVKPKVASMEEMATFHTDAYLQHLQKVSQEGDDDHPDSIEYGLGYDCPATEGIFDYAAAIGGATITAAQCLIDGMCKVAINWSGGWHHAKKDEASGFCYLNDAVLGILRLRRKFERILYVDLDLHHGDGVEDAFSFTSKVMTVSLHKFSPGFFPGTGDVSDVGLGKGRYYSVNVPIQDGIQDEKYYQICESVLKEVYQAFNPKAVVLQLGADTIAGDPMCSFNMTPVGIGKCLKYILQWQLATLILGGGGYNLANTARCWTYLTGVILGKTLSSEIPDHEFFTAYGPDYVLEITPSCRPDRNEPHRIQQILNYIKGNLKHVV

HDAC6 = molecular target: T4, HDAC6 (Homo sapiens, UniProt Q9UBN7); assay: HDAC EMSA activity assay (Nanosyn); assay type: biochemical; design: The full-length human HDACs were recombinantly expressed and purified from SF9 insect cells; host or cells: SF9 insect cells; details: for IC50: EMSA (Nanosyn); for HDAC6 fold-selectivity: over the next closest HDAC isoform tested, * = selectivity ≥ indicated value
T4 sequence (Q9UBN7 1-1215): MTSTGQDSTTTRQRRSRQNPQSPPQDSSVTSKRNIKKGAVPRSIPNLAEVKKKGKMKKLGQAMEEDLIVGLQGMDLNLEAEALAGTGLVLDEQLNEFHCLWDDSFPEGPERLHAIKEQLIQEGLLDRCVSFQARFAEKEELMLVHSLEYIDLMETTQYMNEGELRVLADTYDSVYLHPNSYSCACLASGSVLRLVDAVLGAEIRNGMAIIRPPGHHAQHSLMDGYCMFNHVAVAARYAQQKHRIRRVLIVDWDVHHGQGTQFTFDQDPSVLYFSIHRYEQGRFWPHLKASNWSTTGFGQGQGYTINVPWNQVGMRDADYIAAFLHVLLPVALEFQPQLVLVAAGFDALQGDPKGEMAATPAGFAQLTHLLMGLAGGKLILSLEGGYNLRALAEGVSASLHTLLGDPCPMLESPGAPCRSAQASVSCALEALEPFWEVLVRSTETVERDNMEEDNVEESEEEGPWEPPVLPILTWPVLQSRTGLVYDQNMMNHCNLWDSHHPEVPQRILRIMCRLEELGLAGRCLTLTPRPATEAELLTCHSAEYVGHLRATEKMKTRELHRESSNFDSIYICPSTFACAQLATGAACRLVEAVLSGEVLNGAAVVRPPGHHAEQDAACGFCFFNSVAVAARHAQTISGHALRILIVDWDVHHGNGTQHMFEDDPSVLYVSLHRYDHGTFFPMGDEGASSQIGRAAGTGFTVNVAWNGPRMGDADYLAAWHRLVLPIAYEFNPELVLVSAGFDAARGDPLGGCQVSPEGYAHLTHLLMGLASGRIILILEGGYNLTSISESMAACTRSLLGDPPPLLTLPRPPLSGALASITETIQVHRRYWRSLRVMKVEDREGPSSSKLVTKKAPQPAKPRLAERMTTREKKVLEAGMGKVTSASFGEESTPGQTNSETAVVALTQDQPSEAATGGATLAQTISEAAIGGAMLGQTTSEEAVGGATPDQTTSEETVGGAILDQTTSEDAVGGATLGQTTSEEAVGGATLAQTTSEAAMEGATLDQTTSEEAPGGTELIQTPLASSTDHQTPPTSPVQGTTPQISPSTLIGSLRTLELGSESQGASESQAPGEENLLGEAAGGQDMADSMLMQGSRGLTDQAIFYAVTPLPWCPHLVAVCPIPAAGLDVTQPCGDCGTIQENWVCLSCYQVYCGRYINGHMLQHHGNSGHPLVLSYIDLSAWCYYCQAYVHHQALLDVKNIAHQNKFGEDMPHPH

[1] = Glutathione stability / reactivity assay; assay type: in vitro ADME; details: GSH adduct formation by LC/MS/MS; KT-531 up to 24 h
Experimental: Although covalent modification of HDAC6 was not observed (Figure S2), the PFBS group is susceptible to nucleophilic aromatic substitution by biological nucleophiles. A previously described high-throughput in vitro glutathione-reactivity assay was conducted, where compounds were incubated in the presence of glutathione (GSH) and the formation of a GSH-compound adduct was monitored over time via LC/MS/MS.[50]
Compound was added to PBS and 5 mM GSH to reach a final concentration of 5 μM. […] Samples were vortexed and centrifuged for 45 min at 3220g. Aliquots were diluted by ultrapure water, and used for LC/MS/MS analysis. Peak area ratios were determined and percent compounds remaining was calculated by the following equation: [drawing 1] where peak area ratio (t min) is the peak area ratio of control and test compounds at t min; peak area ratio0min is the peak area ratio of control and test compounds at the zero time point. In vitro half-life (t1/2) = −(0.693/k).

MV4-11 = assay: Cytotoxicity assay (Cell Titer-Blue, 72 h); assay type: cell-based; details: for IC50: Homo sapiens
[2] = MRC9, MRC-9 (healthy fibroblasts), read-out: In cellulo IC50 MRC-9
[3] = recombinant enzyme, read-out: In vitro IC50 HDAC6
[4] = MV4-11 (AML), read-out: In cellulo IC50 MV4-11

T1 sequence (O15379 whole entry): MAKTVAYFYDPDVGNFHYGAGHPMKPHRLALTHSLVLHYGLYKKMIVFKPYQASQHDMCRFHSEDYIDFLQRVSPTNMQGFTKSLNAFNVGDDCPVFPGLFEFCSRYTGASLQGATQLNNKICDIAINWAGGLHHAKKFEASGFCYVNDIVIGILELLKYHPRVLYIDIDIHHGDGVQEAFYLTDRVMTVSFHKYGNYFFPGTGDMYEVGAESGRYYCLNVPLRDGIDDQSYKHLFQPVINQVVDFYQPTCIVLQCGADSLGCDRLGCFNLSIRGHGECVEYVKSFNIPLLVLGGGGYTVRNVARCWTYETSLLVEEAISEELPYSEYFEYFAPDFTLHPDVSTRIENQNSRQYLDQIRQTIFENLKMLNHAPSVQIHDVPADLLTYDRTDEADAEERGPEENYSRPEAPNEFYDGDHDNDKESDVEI
T1 sequence (Q9Y618 395-489 partner limits assumed): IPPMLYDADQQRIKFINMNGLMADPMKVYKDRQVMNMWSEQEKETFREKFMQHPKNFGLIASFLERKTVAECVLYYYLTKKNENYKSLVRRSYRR

IC50 (HDAC3) [nM]	IC50 (HDAC11) [nM]	IC50 (HDAC8) [nM]	IC50 (HDAC6; read-out: IC50 HDAC6) [nM]	reactivity with glutathione [1]	IC50 (HDAC6; [3]) [nM]	HDAC6 fold-selectivity (HDAC6)	selectivity toward HDAC8 (HDAC8) [fold]	SMILES	IC50 (MRC-9; [2]) [nM]	IC50 (MV4-11; [4]) [nM]	activity in MRC9 cells (MRC-9)	activity in MV4-11 cells (MV4-11)	IC50 (MRC-9; MRC9, read-out: In cellulo IC50 MRC-9) [nM]	IC50 (MV4-11; MV4-11, read-out: In cellulo IC50 MV4-11) [nM]
> 1000	> 1000	> 1000	389	–	–	–	–	O=C(NO)c1ccc(CNS(=O)(=O)c2c(F)c(F)c(F)c(F)c2F)cc1 [Compound 2, N-Hydroxy-4-(((perfluorophenyl)sulfonamido)methyl)benzamide]	> 25000	–	–	–	–	–
–	246	184	–	react readily with glutathione	2	–	–	CN(Cc1ccc(C(=O)NO)cc1)S(=O)(=O)c1c(F)c(F)c(F)c(F)c1F [Compound 3, N-Hydroxy-4-(((2,3,4,5,6-pentafluoro-N-methylphenyl)sulfonamido)methyl)benzamide]	> 30000	–	–	–	–	–
932	941	653	–	react readily with glutathione	4	–	–	CC(C)N(Cc1ccc(C(=O)NO)cc1)S(=O)(=O)c1c(F)c(F)c(F)c(F)c1F [Compound 4, N-Hydroxy-4-(((2,3,4,5,6-pentafluoro-N-isopropylphenyl)sulfonamido)methyl)benzamide]	> 10000	–	–	–	–	–
841	> 1000	281	–	–	11	25.5 fold	–	O=C(NO)c1ccc(CN(C2CC2)S(=O)(=O)c2ccc(F)cc2)cc1 [Compound 7, 4-(((N-Cyclopropyl-4-fluorophenyl)sulfonamido)methyl)-N-hydroxybenzamide]	> 50000	8690	–	–	–	–
> 1000	> 1000	273	–	–	14	20 fold and 19.5 fold	–	O=C(NO)c1ccc(CN(C2CC2)S(=O)(=O)c2cc(F)c(F)c(F)c2)cc1 [Compound 8, 4-(((N-Cyclopropyl-3,4,5-trifluorophenyl)sulfonamido)methyl)-N-hydroxybenzamide]	> 25000	5980	–	–	–	–
> 1000	> 1000	315	–	–	8	39.4 fold	–	O=C(NO)c1ccc(CN(C2CC2)S(=O)(=O)c2c(F)cc(F)cc2F)cc1 [Compound 9, 4-(((N-Cyclopropyl-2,4,6-trifluorophenyl)sulfonamido)methyl)-N-hydroxybenzamide]	> 20000	8940	–	–	–	–
> 1000	> 1000	108	–	–	488	–	4	O=C(NO)c1cccc(CN(C2CC2)S(=O)(=O)c2c(F)c(F)c(F)c(F)c2F)c1 [Compound 10, 3-(((N-Cyclopropyl-2,3,4,5,6-pentafluorophenyl)sulfonamido)methyl)-N-hydroxybenzamide]	> 50000	1900	–	–	–	–
> 1000	364	214	–	–	15	14.3 fold	–	O=C(NO)c1ccc(CN(C2CC2)S(=O)(=O)c2c(F)c(Cl)c(F)c(Cl)c2F)cc1 [Compound 11, 4-(((3,5-Dichloro-N-cyclopropyl-2,4,6-trifluorophenyl)sulfonamido)methyl)-N-hydroxybenzamide]	> 50000	670	–	–	–	–
> 1000	> 1000	201	–	–	9	22.3 fold	–	O=C(NO)c1ccc(CN(C2CC2)S(=O)(=O)c2c(F)cc(F)c(Cl)c2F)cc1 [Compound 12, 4-(((3-Chloro-N-cyclopropyl-2,4,6-trifluorophenyl)sulfonamido)methyl)-N-hydroxybenzamide]	> 20000	740	–	–	–	–
> 1000	> 1000	> 1000	70	–	–	14.3 fold and ≥ 14.3* fold	–	O=C(NO)c1ccc(CN(C2CC2)S(=O)(=O)c2c(F)c(F)c(Cl)c(F)c2F)cc1 [Compound 13, 4-(((4-Chloro-N-cyclopropyl-2,3,5,6-tetrafluorophenyl)sulfonamido)methyl)-N-hydroxybenzamide]	> 30000	1380	–	–	–	–
–	–	–	–	–	–	–	–	CCCCN(Cc1ccc(C(=O)NO)cc1)C(=O)Nc1ccccc1 [Nexturastat, reference compound]	–	1680	–	–	–	–
–	–	–	–	–	–	–	–	COc1ccc(Cn2ccc3ccc(C(=O)NO)cc32)cc1 [PCI-34051, reference compound]	–	–	no observable activity	no observable activity	–	–
–	–	–	–	–	–	–	–	O=C(CCCCCCNC(=O)c1cnc(N(c2ccccc2)c2ccccc2)nc1)NO [Ricolinostat, reference compound]	–	–	–	–	> 20000	810
